Results as given in patent US9556143B2, “Metalloenzyme inhibitor compounds” (Viamet Pharmaceuticals, Inc., priority 2011, dated 2017).

System: Puccinia recondita tritici = Puccinia triticina (PUCCRT)
Assay: Fungicidal activity vs. wheat leaf rust
Type: in vivo, Puccinia recondita tritici on wheat (variety Yuma)
Conditions: % disease control @ 50 ppm, wheat seedlings sprayed, inoculated the following day, severity evaluated 7-9 days later, read-out: Puccinia Rating
Text: D. Evaluation of Fungicidal Activity Vs. Leaf Rust (Causal Agent Puccinia recondita tritici=Puccinia triticina; Bayer code PUCCRT). […] Each pot contained 3-8 seedlings. These plants were sprayed until wet with the formulated test compounds. The compounds were formulated at 50 ppm in 10 vol. % acetone plus 90 vol. % Triton X water (deionized water 99.99 wt %+0.01 wt % Triton X100), giving a “formulated test compound.” Formulated test compounds were applied to plants using a turn table sprayer fitted with two opposing air atomization nozzles which delivered approximately 1500 L/ha of spray volume. On the following day, the leaves were inoculated with an aqueous spore suspension of Puccinia recondita tritici and the plants were kept in high humidity overnight to permit spores to germinate and infect the leaf. The plants were then transferred to a greenhouse until disease developed on untreated control plants. Disease severity was evaluated 7-9 days later, depending on the speed of disease development. In each case of Table 3, the Puccinia rating scale is as follows: […]

Which pest or weed control at 50 ppm does the source give for `OC(Cn1cnnn1)(c1ccc(F)cc1F)C(F)(F)c1ccc(-c2ccc(C(F)(F)F)s2)cn1` (centres unmarked) [Compound 34, 2-(2,4-Difluorophenyl)-1,1-difluoro-3-(1H-tetrazol-1-yl)-1-(5-(5-(trifluoromethyl)thiophen-2-yl)pyridin-2-yl)propan-2-ol] here?
Its pest or weed control at 50 ppm is 80 to 100%.

`OC(Cn1cnnn1)(c1ccc(F)cc1F)C(F)(F)c1ccc(-c2nccs2)cn1` (centres unmarked) [Compound 38, 2-(2,4-Difluorophenyl)-1,1-difluoro-3-(1H-tetrazol-1-yl)-1-(5-(thiazol-2-yl)pyridin-2-yl)propan-2-ol] was tested. Which pest or weed control at 50 ppm did it give?
Its pest or weed control at 50 ppm is 80 to 100%.

How did the pest or weed control at 50 ppm turn out when `OC(Cn1cnnn1)(c1ccc(Cl)cc1F)C(F)(F)c1ccc(CC(F)(F)F)cn1` (centres unmarked) [Compound 39, 2-(4-Chloro-2-fluorophenyl)-1,1-difluoro-3-(1H-tetrazol-1-yl)-1-(5-(2,2,2-trifluoroethyl)pyridin-2-yl)propan-2-ol] was run?
Its pest or weed control at 50 ppm is 80 to 100%.

How did the pest or weed control at 50 ppm turn out when `OC(Cn1cnnn1)(c1ccc(Cl)cc1F)C(F)(F)c1ccc(C2CC2)cn1` (centres unmarked) [Compound 40, 2-(4-Chloro-2-fluorophenyl)-1-(5-cyclopropylpyridin-2-yl)-1,1-difluoro-3-(1H-tetrazol-1-yl)propan-2-ol] was run?
Its pest or weed control at 50 ppm is 80 to 100%.

Which pest or weed control at 50 ppm does the source give for `OC(Cn1cnnn1)(c1ccc(F)cc1F)C(F)(F)c1ccc(CCCOCC(F)(F)F)cn1` (centres unmarked) [Compound 45, 2-(2,4-Difluorophenyl)-1,1-difluoro-3-(1H-tetrazol-1-yl)-1-(5-(3-(2,2,2-trifluoroethoxy)propyl)pyridin-2-yl)propan-2-ol] here?
Its pest or weed control at 50 ppm is 80 to 100%.

`CCOC/C=C/c1ccc(C(F)(F)C(O)(Cn2cnnn2)c2ccc(F)cc2F)nc1` (centres unmarked) [Compound 51, (E)-2-(2,4-Difluorophenyl)-1-(5-(3-ethoxyprop-1-en-1-yl)pyridin-2-yl)-1,1-difluoro-3-(1H-tetrazol-1-yl)propan-2-ol] was tested. Which pest or weed control at 50 ppm did it give?
Its pest or weed control at 50 ppm is < 40%.

`CCOC/C=C\c1ccc(C(F)(F)C(O)(Cn2cnnn2)c2ccc(F)cc2F)nc1` (centres unmarked) [Compound 52, (Z)-2-(2,4-Difluorophenyl)-1-(5-(3-ethoxyprop-1-en-1-yl)pyridin-2-yl)-1,1-difluoro-3-(1H-tetrazol-1-yl)propan-2-ol] was tested. Which pest or weed control at 50 ppm did it give?
The pest or weed control at 50 ppm was < 40%.

With `CCOCCCc1ccc(C(F)(F)C(O)(Cn2cnnn2)c2ccc(F)cc2F)nc1` (centres unmarked) [Compound 53, 2-(2,4-Difluorophenyl)-1-(5-(3-ethoxypropyl)pyridin-2-yl)-1,1-difluoro-3-(1H-tetrazol-1-yl)propan-2-ol] as the compound, how does the pest or weed control at 50 ppm read?
The pest or weed control at 50 ppm was 80 to 100%.

Which pest or weed control at 50 ppm does the source give for `CC(C)OC/C=C/c1ccc(C(F)(F)C(O)(Cn2cnnn2)c2ccc(F)cc2F)nc1` (centres unmarked) [Compound 54, (E)-2-(2,4-Difluorophenyl)-1,1-difluoro-1-(5-(3-isopropoxyprop-1-en-1-yl)pyridin-2-yl)-3-(1H-tetrazol-1-yl)propan-2-ol] here?
The pest or weed control at 50 ppm was < 40%.

For `OC(Cn1cnnn1)(c1ccc(F)cc1F)C(F)(F)c1ccc(CC2CC2)cn1` (centres unmarked) [Compound 59, 1-(5-(Cyclopropylmethyl)pyridin-2-yl)-2-(2,4-difluorophenyl)-1,1-difluoro-3-(1H-tetrazol-1-yl)propan-2-ol], which pest or weed control at 50 ppm is on record?
Its pest or weed control at 50 ppm is 80 to 100%.

`OC(Cn1cnnn1)(c1ccc(Cl)cc1F)C(F)(F)c1ccc(CC2CC2)cn1` (centres unmarked) [Compound 60, 7-(4-Chloro-fluorophenyl)-1-(5-(cyclopropylmethyl)pyridin-2-yl)-1,1-difluoro-3-(1H-tetrazol-1-yl)propan-2-ol] was tested. Which pest or weed control at 50 ppm did it give?
Its pest or weed control at 50 ppm is 80 to 100%.

Which pest or weed control at 50 ppm does the source give for `O=C(c1ccc(C(F)(F)F)cc1)c1ccc(C(F)(F)C(O)(Cn2cnnn2)c2ccc(F)cc2F)nc1` (centres unmarked) [Compound 66, (6-(2-(2,4-Difluorophenyl)-1,1-difluoro-2-hydroxy-3-(1H-tetrazol-1-yl)propyl)pyridin-3-yl)(4-(trifluoromethyl)phenyl)methanone] here?
The pest or weed control at 50 ppm was 80 to 100%.

`O=C(c1ccc(Cl)cc1)c1ccc(C(F)(F)C(O)(Cn2cnnn2)c2ccc(F)cc2F)nc1` (centres unmarked) [Compound 67, (4-Chlorophenyl)(6-(2-(2,4-difluorophenyl)-1,1-difluoro-2-hydroxy-3-(1H-tetrazol-1-yl)propyl)pyridin-3-yl)methanone] was tested. Which pest or weed control at 50 ppm did it give?
Its pest or weed control at 50 ppm is 80 to 100%.

`O=C(c1ccc(OCC(F)(F)F)cc1)c1ccc(C(F)(F)C(O)(Cn2cnnn2)c2ccc(F)cc2F)nc1` (centres unmarked) [Compound 68, (6-(2-(2,4-Difluorophenyl)-1,1-difluoro-2-hydroxy-3-(1H-tetrazol-1-yl)propyl)pyridin-3-yl)(4-(2,2,2-trifluoroethoxy)phenyl)methanone] was tested. Which pest or weed control at 50 ppm did it give?
Its pest or weed control at 50 ppm is 80 to 100%.

Which pest or weed control at 50 ppm does the source give for `O=C(c1ccc(F)cc1)c1ccc(C(F)(F)C(O)(Cn2cnnn2)c2ccc(F)cc2F)nc1` (centres unmarked) [Compound 69, (6-(2-(2,4-Difluorophenyl)-1,1-difluoro-2-hydroxy-3-(1H-tetrazol-1-yl)propyl)pyridin-3-yl)(4-fluorophenyl)methanone] here?
Its pest or weed control at 50 ppm is 80 to 100%.

With `O=C(c1ccc(C(F)(F)C(O)(Cn2cnnn2)c2ccc(F)cc2F)nc1)c1ccc(Cl)c(F)c1` (centres unmarked) [Compound 71, (4-Chloro-3-fluorophenyl)(6-(2-(2,4-difluorophenyl)-1,1-difluoro-2-hydroxy-3-(1H-tetrazol-1-yl)propyl)pyridin-3-yl)methanone] as the compound, how does the pest or weed control at 50 ppm read?
The pest or weed control at 50 ppm was 80 to 100%.

For `OC(Cn1cnnn1)(c1ccc(F)cc1F)C(F)(F)c1ccc(Cc2ccc(C(F)(F)F)cc2)cn1` (centres unmarked) [Compound 73, 2-(2,4-Difluorophenyl)-1,1-difluoro-3-(1H-tetrazol-1-yl)-1-(5-(4-(trifluoromethyl)benzyl)pyridin-2-yl)propan-2-ol], which pest or weed control at 50 ppm is on record?
Its pest or weed control at 50 ppm is 80 to 100%.

For `OC(Cn1cnnn1)(c1ccc(F)cc1F)C(F)(F)c1ccc(Cc2ccccc2)cn1` (centres unmarked) [Compound 75, 1-(5-Benzylpyridin-2-yl)-2-(2,4-difluorophenyl)-1,1-difluoro-3-(1H-tetrazol-1-yl)propan-2-ol], which pest or weed control at 50 ppm is on record?
Its pest or weed control at 50 ppm is 80 to 100%.

With `OC(Cn1cnnn1)(c1ccc(F)cc1F)C(F)(F)c1ccc(Cc2ccc(OC(F)(F)F)cc2)cn1` (centres unmarked) [Compound 76, 2-(2,4-Difluorophenyl)-1,1-difluoro-3-(1H-tetrazol-1-yl)-1-(5-(4-(trifluoromethoxy)benzyl)pyridin-2-yl)propan-2-ol] as the compound, how does the pest or weed control at 50 ppm read?
The pest or weed control at 50 ppm was 80 to 100%.

For `OC(Cn1cnnn1)(c1ccc(F)cc1F)C(F)(F)c1ccc(Cc2ccc(Cl)cc2)cn1` (centres unmarked) [Compound 77, 1-(5-(4-Chlorobenzyl)pyridin-2-yl)-2-(2,4-difluorophenyl)-1,1-difluoro-3-(1H-tetrazol-1-yl)propan-2-ol], which pest or weed control at 50 ppm is on record?
The pest or weed control at 50 ppm was 80 to 100%.

How did the pest or weed control at 50 ppm turn out when `N#Cc1ccc(OCc2ccc(C(F)(F)C(O)(Cn3cnnn3)c3ccc(F)cc3F)nc2)cc1` (centres unmarked) [Compound 79, 4-((6-(2-(2,4-Difluorophenyl)-1,1-difluoro-2-hydroxy-3-(1H-tetrazol-1-yl)propyl)pyridin-3-yl)methoxy)benzonitrile] was run?
The pest or weed control at 50 ppm was 80 to 100%.

For `OC(Cc1cnco1)(c1ccc(F)cc1F)C(F)(F)c1ccc(Br)cn1` (centres unmarked) [Compound 83, 1-(5-Bromopyridin-2-yl)-2-(2,4-difluorophenyl)-1,1-difluoro-3-(oxazol-5-yl)propan-2-ol], which pest or weed control at 50 ppm is on record?
Its pest or weed control at 50 ppm is 80 to 100%.

For `N#Cc1ccc(OCc2ccc(C(F)(F)C(O)(Cn3cnnn3)c3ccc(F)cc3F)nc2)c(F)c1` (centres unmarked) [Compound 88, 4-((6-(2-(2,4-difluorophenyl)-1,1-difluoro-2-hydroxy-3-(1H-tetrazol-1-yl)propyl)pyridin-3-yl)methoxy)-3-fluorobenzonitrile], which pest or weed control at 50 ppm is on record?
Its pest or weed control at 50 ppm is 80 to 100%.
